Results reported in ChEMBL document CHEMBL1909046, “DrugMatrix in vitro pharmacology data”.

Experiments:
Cytochrome P450 2C19 = Cytochrome P450 2C19 (Homo sapiens, UniProt P33261); settings: bti-tn-5b1-4; also: in other assays of this panel Not Active means under 50% inhibition at 10 µM
[1] = DRUGMATRIX: Nicotinic Acetylcholine radioligand binding (ligand: [125I] Epibatidine); format: cell membranes, Membrane; settings: imr-32; Not Active = under 50% inhibition at 10 µM
[2] = biological target: T1, Muscarinic acetylcholine receptor M2 (Homo sapiens, UniProt P08172); format: cell membranes, CHO-K1, Membrane; settings: cho-k1; also: in other assays of this panel Not Active means under 50% inhibition at 10 µM
T1 sequence (P08172 whole entry): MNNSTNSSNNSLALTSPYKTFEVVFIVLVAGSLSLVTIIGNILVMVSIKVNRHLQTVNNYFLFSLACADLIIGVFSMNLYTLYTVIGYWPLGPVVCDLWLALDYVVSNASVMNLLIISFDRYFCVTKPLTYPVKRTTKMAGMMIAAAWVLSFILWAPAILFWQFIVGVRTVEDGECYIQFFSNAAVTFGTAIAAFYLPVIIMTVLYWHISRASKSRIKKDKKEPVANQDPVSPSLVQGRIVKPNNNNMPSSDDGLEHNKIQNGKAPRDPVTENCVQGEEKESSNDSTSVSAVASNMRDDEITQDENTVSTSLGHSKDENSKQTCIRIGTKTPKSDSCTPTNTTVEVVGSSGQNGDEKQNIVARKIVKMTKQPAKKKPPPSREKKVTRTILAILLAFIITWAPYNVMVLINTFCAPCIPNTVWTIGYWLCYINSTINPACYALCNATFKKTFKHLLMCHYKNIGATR

[3] = biological target: Beta-1 adrenergic receptor (Homo sapiens, UniProt P08588); assay: DRUGMATRIX: Adrenergic beta1 radioligand binding (ligand: [125I] Cyanopindolol); format: cell membranes, CHO-K1, Membrane; settings: Not Active = under 50% inhibition at 10 µM
Chain of Beta-1 adrenergic receptor (P08588 whole entry): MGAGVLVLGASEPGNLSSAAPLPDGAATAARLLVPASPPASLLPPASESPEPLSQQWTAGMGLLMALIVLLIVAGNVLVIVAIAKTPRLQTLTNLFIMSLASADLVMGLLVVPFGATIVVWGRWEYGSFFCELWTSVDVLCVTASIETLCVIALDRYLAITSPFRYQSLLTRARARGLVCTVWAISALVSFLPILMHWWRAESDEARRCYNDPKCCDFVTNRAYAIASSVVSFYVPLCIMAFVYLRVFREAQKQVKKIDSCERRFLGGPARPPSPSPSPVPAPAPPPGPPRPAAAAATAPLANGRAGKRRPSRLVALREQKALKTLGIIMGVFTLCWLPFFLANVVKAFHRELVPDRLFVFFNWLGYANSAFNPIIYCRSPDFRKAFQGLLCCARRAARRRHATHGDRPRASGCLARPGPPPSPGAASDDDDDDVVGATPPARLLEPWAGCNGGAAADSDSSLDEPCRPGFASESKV

[4] = biological target: T2, C-C chemokine receptor type 4 (Homo sapiens, UniProt P51679); format: cell membranes, Chem-1, Membrane; settings: chem-1; also: in other assays of this panel Not Active means under 50% inhibition at 10 µM
T2 sequence (P51679 whole entry): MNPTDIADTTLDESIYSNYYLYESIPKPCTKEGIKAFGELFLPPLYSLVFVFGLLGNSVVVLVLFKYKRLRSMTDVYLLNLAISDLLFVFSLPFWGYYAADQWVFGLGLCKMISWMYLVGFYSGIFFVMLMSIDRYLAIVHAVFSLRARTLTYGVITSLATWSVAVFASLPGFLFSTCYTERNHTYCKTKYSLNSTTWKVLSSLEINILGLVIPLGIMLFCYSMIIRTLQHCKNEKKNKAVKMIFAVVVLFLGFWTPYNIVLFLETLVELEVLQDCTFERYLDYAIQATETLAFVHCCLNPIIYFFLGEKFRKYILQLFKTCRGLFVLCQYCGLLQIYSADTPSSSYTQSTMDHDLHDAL

Cytochrome P450 2D6 = Cytochrome P450 2D6 (Homo sapiens, UniProt P10635); settings: bti-tn-5b1-4; also: in other assays of this panel Not Active means under 50% inhibition at 10 µM
Chain of Cytochrome P450 2D6 (P10635 whole entry): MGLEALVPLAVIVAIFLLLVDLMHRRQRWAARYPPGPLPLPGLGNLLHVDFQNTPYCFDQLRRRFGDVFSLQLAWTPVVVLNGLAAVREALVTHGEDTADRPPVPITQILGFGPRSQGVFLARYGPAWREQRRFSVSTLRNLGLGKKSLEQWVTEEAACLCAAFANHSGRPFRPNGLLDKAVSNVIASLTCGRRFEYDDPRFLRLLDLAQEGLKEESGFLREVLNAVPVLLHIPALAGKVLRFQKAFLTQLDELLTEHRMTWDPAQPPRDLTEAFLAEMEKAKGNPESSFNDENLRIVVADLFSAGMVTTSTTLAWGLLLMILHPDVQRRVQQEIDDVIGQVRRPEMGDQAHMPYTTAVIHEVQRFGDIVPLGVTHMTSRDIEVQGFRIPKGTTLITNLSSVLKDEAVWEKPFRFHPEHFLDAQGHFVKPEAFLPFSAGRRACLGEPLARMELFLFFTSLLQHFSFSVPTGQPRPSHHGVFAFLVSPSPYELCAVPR

Cannabinoid receptor 1 = Cannabinoid receptor 1 (Homo sapiens, UniProt P21554); format: cell membranes, Membrane; settings: chem-1; also: in other assays of this panel Not Active means under 50% inhibition at 10 µM
Chain of Cannabinoid receptor 1 (P21554 whole entry): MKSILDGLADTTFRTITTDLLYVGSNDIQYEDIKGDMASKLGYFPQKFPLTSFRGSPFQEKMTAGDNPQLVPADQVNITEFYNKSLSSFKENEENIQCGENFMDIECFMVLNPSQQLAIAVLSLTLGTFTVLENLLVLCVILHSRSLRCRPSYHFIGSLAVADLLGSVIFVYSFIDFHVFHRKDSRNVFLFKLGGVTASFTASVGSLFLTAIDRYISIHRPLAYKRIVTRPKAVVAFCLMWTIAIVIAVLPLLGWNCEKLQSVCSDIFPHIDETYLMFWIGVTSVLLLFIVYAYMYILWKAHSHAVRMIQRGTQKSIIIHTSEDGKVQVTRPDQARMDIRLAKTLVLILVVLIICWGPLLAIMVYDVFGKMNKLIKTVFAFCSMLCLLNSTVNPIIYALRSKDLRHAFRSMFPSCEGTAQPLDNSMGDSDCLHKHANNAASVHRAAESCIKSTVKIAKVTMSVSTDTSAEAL

Substance-P receptor = Substance-P receptor (Homo sapiens, UniProt P25103); format: cell membranes, CHO, Membrane; settings: cho; also: in other assays of this panel Not Active means under 50% inhibition at 10 µM
Chain of Substance-P receptor (P25103 whole entry): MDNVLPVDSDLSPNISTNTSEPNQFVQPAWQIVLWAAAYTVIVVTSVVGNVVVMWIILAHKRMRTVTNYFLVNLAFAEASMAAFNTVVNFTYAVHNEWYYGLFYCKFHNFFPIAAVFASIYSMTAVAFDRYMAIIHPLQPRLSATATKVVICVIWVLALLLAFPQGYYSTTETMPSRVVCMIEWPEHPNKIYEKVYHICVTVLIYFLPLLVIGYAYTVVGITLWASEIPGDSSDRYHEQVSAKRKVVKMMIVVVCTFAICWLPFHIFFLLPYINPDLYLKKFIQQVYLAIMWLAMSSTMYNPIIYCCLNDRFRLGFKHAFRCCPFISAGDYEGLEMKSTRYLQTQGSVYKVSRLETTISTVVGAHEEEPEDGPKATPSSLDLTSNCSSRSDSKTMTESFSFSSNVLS

Chain of Cytochrome P450 2C19 (P33261 whole entry): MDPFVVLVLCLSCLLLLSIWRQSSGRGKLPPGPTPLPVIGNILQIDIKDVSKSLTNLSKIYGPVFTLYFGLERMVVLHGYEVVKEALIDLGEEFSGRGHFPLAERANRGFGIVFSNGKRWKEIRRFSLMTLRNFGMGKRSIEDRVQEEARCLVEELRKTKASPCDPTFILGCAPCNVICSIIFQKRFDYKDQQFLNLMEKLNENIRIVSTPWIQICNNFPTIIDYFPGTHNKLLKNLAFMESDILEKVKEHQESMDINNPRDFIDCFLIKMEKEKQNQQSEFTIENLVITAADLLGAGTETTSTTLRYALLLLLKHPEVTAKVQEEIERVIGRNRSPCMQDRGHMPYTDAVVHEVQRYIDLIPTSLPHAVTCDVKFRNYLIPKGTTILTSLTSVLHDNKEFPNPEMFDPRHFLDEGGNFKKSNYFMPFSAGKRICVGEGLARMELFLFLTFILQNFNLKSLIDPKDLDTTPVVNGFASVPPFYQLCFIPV

SMILES: NCCCCCC(=O)O [AMINOCAPROIC ACID]
- IC50 (Cytochrome P450 2C19): Not Active
- Ki (Cytochrome P450 2C19): Not Active
- IC50 [1]: Not Active
- Ki [1]: Not Active
- IC50 [2]: Not Active
- IC50 ([3]; cho-k1): Not Active
- IC50 [4]: Not Active
- IC50 (Cytochrome P450 2D6): Not Active
- Ki (Cytochrome P450 2D6): Not Active
- IC50 (Cannabinoid receptor 1): Not Active
- IC50 (Substance-P receptor): Not Active

SMILES: CC(C)(C)NCC(O)c1cc(Cl)c(N)c(Cl)c1 (stereo unspecified) [CLENBUTEROL]
- IC50 (Cytochrome P450 2C19): Not Active
- Ki (Cytochrome P450 2C19): Not Active
- IC50 [1]: Not Active
- Ki [1]: Not Active
- IC50 [2]: Not Active
- IC50 ([3]; read-out: IC50): 120 nM
- Ki ([3]; read-out: Ki): 69 nM
- IC50 [4]: Not Active
- IC50 (Cytochrome P450 2D6): Not Active
- Ki (Cytochrome P450 2D6): Not Active
- IC50 (Cannabinoid receptor 1): Not Active
- IC50 (Substance-P receptor): Not Active

SMILES: c1ccc(Nc2ccc(Nc3ccccc3)cc2)cc1
- IC50 (Cytochrome P450 2C19): Not Active
- Ki (Cytochrome P450 2C19): Not Active
- IC50 [1]: Not Active
- Ki [1]: Not Active
- IC50 [2]: Not Active
- IC50 ([3]; cho-k1): Not Active
- IC50 [4]: Not Active
- IC50 (Cytochrome P450 2D6): Not Active
- Ki (Cytochrome P450 2D6): Not Active
- IC50 (Cannabinoid receptor 1): Not Active
- IC50 (Substance-P receptor): Not Active

SMILES: Cc1cc(C(C#N)c2ccc(Cl)cc2)c(Cl)cc1NC(=O)c1cc(I)cc(I)c1O (stereo unspecified) [CLOSANTEL]
- IC50 (Cytochrome P450 2C19): Not Active
- Ki (Cytochrome P450 2C19): Not Active
- IC50 [1]: Not Active
- Ki [1]: Not Active
- IC50 [2]: Not Active
- IC50 ([3]; cho-k1): Not Active
- IC50 [4]: Not Active
- IC50 (Cytochrome P450 2D6): Not Active
- Ki (Cytochrome P450 2D6): Not Active
- IC50 (Cannabinoid receptor 1): Not Active
- IC50 (Substance-P receptor): Not Active

SMILES: Cc1ccc2cc3c(ccc4ccccc43)c3c2c1CC3 [3-METHYLCHOLANTHRENE]
- IC50 (Cytochrome P450 2C19): Not Active
- Ki (Cytochrome P450 2C19): Not Active
- IC50 [1]: Not Active
- Ki [1]: Not Active
- IC50 [2]: Not Active
- IC50 ([3]; cho-k1): Not Active
- IC50 [4]: Not Active
- IC50 (Cytochrome P450 2D6): Not Active
- Ki (Cytochrome P450 2D6): Not Active
- IC50 (Cannabinoid receptor 1): Not Active
- IC50 (Substance-P receptor): Not Active

SMILES: Nc1nc2c(ncn2CCC(CO)CO)c(=O)[nH]1 [PENCICLOVIR]
- IC50 (Cytochrome P450 2C19): Not Active
- Ki (Cytochrome P450 2C19): Not Active
- IC50 [1]: Not Active
- Ki [1]: Not Active
- IC50 [2]: Not Active
- IC50 ([3]; cho-k1): Not Active
- IC50 [4]: Not Active
- IC50 (Cytochrome P450 2D6): Not Active
- Ki (Cytochrome P450 2D6): Not Active
- IC50 (Cannabinoid receptor 1): Not Active
- IC50 (Substance-P receptor): Not Active

SMILES: CC1Cc2ccccc2N1NC(=O)c1ccc(Cl)c(S(N)(=O)=O)c1 (stereo unspecified) [INDAPAMIDE]
- IC50 (Cytochrome P450 2C19): Not Active
- Ki (Cytochrome P450 2C19): Not Active
- IC50 [1]: Not Active
- Ki [1]: Not Active
- IC50 [2]: Not Active
- IC50 ([3]; cho-k1): Not Active
- IC50 [4]: Not Active
- IC50 (Cytochrome P450 2D6): Not Active
- Ki (Cytochrome P450 2D6): Not Active
- IC50 (Cannabinoid receptor 1): Not Active
- IC50 (Substance-P receptor): Not Active

SMILES: CCCCc1nc(Cl)c(CO)n1Cc1ccc(-c2ccccc2-c2nnn[nH]2)cc1 [LOSARTAN]
- IC50 (Cytochrome P450 2C19): Not Active
- Ki (Cytochrome P450 2C19): Not Active
- IC50 [1]: Not Active
- Ki [1]: Not Active
- IC50 [2]: Not Active
- IC50 ([3]; cho-k1): Not Active
- IC50 [4]: Not Active
- IC50 (Cytochrome P450 2D6): Not Active
- Ki (Cytochrome P450 2D6): Not Active
- IC50 (Cannabinoid receptor 1): Not Active
- IC50 (Substance-P receptor): Not Active

SMILES: COc1cc2c3cc1Oc1cc(ccc1O)C[C@@H]1c4c(cc(OC)c(O)c4Oc4ccc(cc4)C[C@@H]3N(C)CC2)CC[N+]1(C)C.[Cl-]
- IC50 (Cytochrome P450 2C19): Not Active
- Ki (Cytochrome P450 2C19): Not Active
- IC50 [1]: Not Active
- Ki [1]: Not Active
- IC50 [2]: Not Active
- IC50 ([3]; cho-k1): Not Active
- IC50 [4]: Not Active
- IC50 (Cytochrome P450 2D6): Not Active
- Ki (Cytochrome P450 2D6): Not Active
- IC50 (Cannabinoid receptor 1): Not Active
- IC50 (Substance-P receptor): Not Active

SMILES: CCC(C)n1ncn(-c2ccc(N3CCN(c4ccc(OCC5COC(Cn6cncn6)(c6ccc(Cl)cc6Cl)O5)cc4)CC3)cc2)c1=O (stereo unspecified) [ITRACONAZOLE]
- IC50 (Cytochrome P450 2C19): Not Active
- Ki (Cytochrome P450 2C19): Not Active
- IC50 [1]: Not Active
- Ki [1]: Not Active
- IC50 [2]: Not Active
- IC50 ([3]; cho-k1): Not Active
- IC50 [4]: Not Active
- IC50 (Cytochrome P450 2D6): Not Active
- Ki (Cytochrome P450 2D6): Not Active
- IC50 (Cannabinoid receptor 1): Not Active
- IC50 (Substance-P receptor): Not Active
